Source: US9340577B2, “HLA binding motifs and peptides and their uses” (priority 1992, dated 2016)
pIC50: −log10 of the molar value. Like-named read-outs stand apart in the source and are kept apart here. No end group written: not given here.

Assays:
Test in all cases: biochemical
Format in all cases: binding
[1] = target: DR1 (DRB1*0101) (Homo sapiens, UniProt P01903+P01911, A100R/D57E/F55L/F60I/F76Y/I96L/L162R/M171V/P40L/Q125E/R42F/V115G/Y59C)
[2] = target: HLA-A3.2 (A*0301) (Homo sapiens, UniProt P04439)
[3] = target: HLA-A11 (A*1101) (Homo sapiens, UniProt P04439, A114D/D185E/E176A/F33Y/L180Q/S129P/T187R)
[4] = target: A31 (A*3101) (Homo sapiens, UniProt P04439, A270S/D185E/E176V/E277Q/F33T/G231S/G80R/H175R/I121M/I218V/I322F/K168Q/L300P/L318F/M331R/P217A/Q94H/R138Q/T323A/T345S/T97I/V358M)
[5] = target: A*3301 (Homo sapiens, UniProt P04439, A270S/D185E/E176V/E277Q/E87N/F33T/G231S/H175R/I121M/I218V/I322F/K168Q/K210R/L300P/L318F/M331R/P217A/Q86R/Q94H/R138Q/T323A/T345S/T97I/V358M/Y195H)
[6] = target: A*6801 (Homo sapiens, UniProt P04439, A269V/D185E/E176V/E277Q/E87N/F33Y/G231S/I121M/I166T/I218V/L180W/L300P/L318F/N151K/P208A/P217A/Q86R/R169H/T345S)

Compound | pIC50 ([1]; read-out: DRB1*0101) | pIC50 [1] | pIC50 [2] | pIC50 [3] | pIC50 [4] | pIC50 [5] | pIC50 [6]
730.12 (Ac-AAAKATAAAAAA; also: non-natural residue (10)) [Peptide 730.12] | 5.30 |  |  |  |  |  | 
824.22 (AAKTAAAFA; also: non-natural residue (46)) [Peptide 824.22] | 5.30 |  |  |  |  |  | 
CC(C)[C@H](NC(=O)[C@@H]1CCCN1C(=O)[C@H](CCCCN)NC(=O)[C@H](CO)NC(=O)[C@H](CC(N)=O)NC(=O)[C@H](CC(N)=O)NC(=O)[C@H](CO)NC(=O)[C@H](CO)NC(=O)[C@H](Cc1ccccc1)NC(=O)[C@H](CO)NC(=O)[C@@H]1CCCN1C(=O)[C@@H](N)CCCCN)C(=O)N[C@@H](CCC(=O)O)C(=O)N[C@@H](CC(=O)O)C(=O)N[C@@H](CCCCN)C(=O)O [Peptide 9014.0037] |  | 7.66 |  |  |  |  | 
CC(C)[C@H](NC(=O)[C@H](CO)NC(=O)[C@@H]1CCCN1C(=O)[C@@H](N)CCCCN)C(=O)N[C@@H](CO)C(=O)N[C@@H](CO)C(=O)N[C@@H](CC(N)=O)C(=O)N[C@@H](CC(N)=O)C(=O)N[C@@H](CO)C(=O)N[C@@H](CCCCN)C(=O)N1CCC[C@H]1C(=O)N[C@H](C(=O)N[C@@H](CCC(=O)O)C(=O)N[C@@H](CC(=O)O)C(=O)N[C@@H](CCCCN)C(=O)O)C(C)C [Peptide 9014.0041] |  | 6.02 |  |  |  |  | 
TALIKPKKR [Peptide 9017.0102] |  |  | < 4.70 | 5.56 | 5.76 | 6.11 | 6.53
TFWNPPTTAR [Peptide 1556.02] |  |  | 4.74 | 5.82 | 7.24 | 7.40 | 7.54
TIAYIEYRK [Peptide 9017.0119] |  |  | 6.04 | 7.62 | 5.48 | 6.05 | 8.11
TILWKDIFHR [Peptide 9012.0223] |  |  | 5.71 | 8.00 | 7.48 | 7.96 | 7.59
TLWNPPTTAK [Peptide 1556.04] |  |  | 7.66 | 6.97 | 5.17 | 5.65 | 6.36
TLYAEPPK [Peptide 1556.12] |  |  | 6.13 | 6.57 | < 4.70 | < 4.70 | 5.70
TQQLQDLFK [Peptide 88.0374] |  |  | 5.77 | 7.28 | < 4.70 | 5.70 | 5.18
TQQMLQVEGR [Peptide 88.0128] |  |  | < 4.70 | 5.52 | 6.45 | 5.73 | 6.13
TTNCTYKGR [Peptide 1589.41] |  |  | < 4.70 | 5.66 | 7.24 | 6.78 | 7.42
TTSAELPK [Peptide 1556.23] |  |  | 4.71 | 6.66 | < 4.70 | < 4.70 | 5.85
TTTYSPALNK [Peptide 1556.41] |  |  | 6.99 | 8.60 | < 4.70 | < 4.70 | 7.74
TVHVYFDGNK [Peptide 1589.24] |  |  | 6.15 | 7.21 | < 4.70 | < 4.70 | 7.01
TVNEYNTHK [Peptide 1589.36] |  |  | 7.08 | 7.70 | 5.39 | 5.56 | 7.31
TVQVYFDGNK [Peptide 88.0202] |  |  | 5.96 | 7.85 | 5.34 | 4.81 | 6.92
TVSAELPR [Peptide 1556.22] |  |  | < 4.70 | 5.73 | 4.94 | 5.00 | 6.67
TVSATQLVK [Peptide 1589.08] |  |  | 8.19 | 8.36 | 4.84 | < 4.70 | 7.51
VFADLRIVYR [Peptide 78.0073] |  |  | < 4.70 | 5.68 | 7.51 | 7.28 | 6.71
VFCGPANTGK [Peptide 88.0150] |  |  | 5.71 | 5.78 | 6.31 | 6.09 | 5.52
VIDSPAGQA [Peptide 78.0316] |  |  | 4.88 | 5.03 | 6.39 | 6.04 | 6.01
VSIEWRLRR [Peptide 9017.0088] |  |  | 6.47 | 8.16 | 8.51 | 7.54 | 6.88
